Results taken from ChEMBL document CHEMBL1133708, “A new class of conformationally rigid analogues of 4-amino-5-halopentanoic acids, potent inactivators of gamma-aminobutyric acid aminotransferase” (J Med Chem, 2000).

Key:
[1] = biological target: 4-aminobutyrate aminotransferase, mitochondrial (Sus scrofa) (UniProt P80147); assay: Compound was evaluated for the kinetic constant for the inactivation of Gamma-amino-N-butyrate transaminase
[2] = biological target: T1, 4-aminobutyrate aminotransferase, mitochondrial (Sus scrofa, UniProt P80147); assay: Compound was evaluated for the kinetic constant for the inhibition of Gamma-amino-N-butyrate transaminase
[3] = Selectivity ratio of Kinact/KI
[4] = biological target: T1, 4-aminobutyrate aminotransferase, mitochondrial; assay: Compound was evaluated for the competitive inhibition of Gamma-amino-N-butyrate transaminase
[5] = biological target: 4-aminobutyrate aminotransferase, mitochondrial (Sus scrofa) (UniProt P80147); assay: Compound was evaluated for the kinetic constant for the inhibition of Gamma-amino-N-butyrate transaminase; NA means no inactivation

Chain of 4-aminobutyrate aminotransferase, mitochondrial (Sus scrofa) (P80147 whole entry): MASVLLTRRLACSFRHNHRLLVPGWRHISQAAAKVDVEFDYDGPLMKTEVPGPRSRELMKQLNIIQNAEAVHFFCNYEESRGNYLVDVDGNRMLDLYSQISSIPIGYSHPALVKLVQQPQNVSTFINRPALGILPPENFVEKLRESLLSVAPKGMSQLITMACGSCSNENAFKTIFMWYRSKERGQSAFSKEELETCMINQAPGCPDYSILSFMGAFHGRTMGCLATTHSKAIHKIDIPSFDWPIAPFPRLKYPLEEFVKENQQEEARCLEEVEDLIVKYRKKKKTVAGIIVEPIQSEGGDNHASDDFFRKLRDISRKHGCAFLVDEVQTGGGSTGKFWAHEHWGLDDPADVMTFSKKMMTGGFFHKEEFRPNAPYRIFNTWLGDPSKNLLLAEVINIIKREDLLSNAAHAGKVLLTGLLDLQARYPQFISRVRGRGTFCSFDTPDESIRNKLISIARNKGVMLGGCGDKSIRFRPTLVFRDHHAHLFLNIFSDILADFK
T1 sequence (P80147 whole entry): as above

kinact [1]	Ki [2]	K inact/Ki [3]	Ki [4]	NA [5]	SMILES
0.023 min⁻¹	3.14 mM	0.122 M⁻¹ s⁻¹	1.6 mM	–	N[C@H]1[C@@H](F)[C@@H](C(=O)O)C[C@@H]1Br
–	–	–	5.9 mM	No inactivation	N[C@H]1[C@H](O)[C@@H](C(=O)O)C[C@@H]1Br
–	–	–	12 mM	No inactivation	N[C@@H]1CC[C@H](C(=O)O)[C@H]1Br

The remaining lines, values behind:

SMILES	kinact [1]	Ki [2]	K inact/Ki [3]	Ki [4]	NA [5]
N[C@H]1[C@H](Br)[C@@H](C(=O)O)C[C@@H]1O	–	–	–	13 mM	No inactivation
N[C@H]1C[C@@H](C(=O)O)CC1(F)F	–	–	–	–	No inactivation
N[C@H]1C[C@@H](C(=O)O)C[C@@H]1Br	0.02 min⁻¹	16 mM	0.0217 M⁻¹ s⁻¹	3.6 mM	–
N[C@H]1C[C@@H](C(=O)O)C[C@@H]1F	0.03 min⁻¹	0.43 mM	1.17 M⁻¹ s⁻¹	0.012 mM	–
NC(CF)CCC(=O)O (configuration not stated)	0.5 min⁻¹	0.4 mM	–	–	–
N[C@H]1[C@H](Br)[C@@H](C(=O)O)C[C@@H]1Br	0.18 min⁻¹	49 mM	0.0617 M⁻¹ s⁻¹	4.2 mM	–
N[C@H]1[C@H](Br)[C@@H](C(=O)O)C[C@@H]1F	–	–	–	4.7 mM	No inactivation
